The values below come from patent US12600808B2, “Crosslinkable prepolymers for chemically stable polymer gels” (priority 2020, dated 2026).

Molecules are shown by their SMILES.

Format in all cases: physicochemical
Series [1] is described as follows: Antioxidant testing: accelerated aging of antioxidant-doped hydrogels in D2O, decomposition markers by NMR. To be noted: antioxidant added to prepolymer formulation (BHT with 1% DMSO). An excerpt: The influence of different antioxidants on hydrogel stability was studied by doping prepolymer formulations with specified antioxidants prior to photopolymerization as described in application example 1, followed by accelerated aging experiments in heavy water (D20).
Detection of decomposition was observed by NMR spectroscopy with the formation of decomposition markers, such as formic acid, in the liquid. This was quantified with the addition of an internal standard.

Series [2] can be described thus: Photopolymerization efficiency, gravimetric determination of the cured polymer mass. The conditions noted are these: photopolymerization efficiency test per application example 5 with antioxidant. The protocol:
The photopolymerization efficiency was examined by gravimetric determination of the cured polymer mass: Solutions containing prepolymer prepared according to examples 5-7, 10 or 11 (15% w/w) and photoinitiator (0.1% w/w) were prepared in deionized water. 500 mg of the premixed solutions were loaded into a 2 mL polystyrene cuvette and irradiated for 60 s with a laser (X=405 nm, p=10 mW) from the side. The solid hydrogels were removed, wiped to remove residual liquid, and weighed. The ratio of solid, cure material to liquid, uncured material was calculated and used as a measure for the photopolymerization efficiency. The setup used is depicted in FIG. 2: 301 represents the polystyrene cuvette, 302 the liquid prepolymer composition, 303 the solidified hydrogel and 304 the laser beam.
The photopolymerization efficiency of the prepolymers PEG-DMA (prepared according to example 7), linker-containing PEG-dimethacrylates (example 5-7), PEG-DAAm (example 10), linker-containing PEG-diacrylamides (example 11) and 1OR5-Dimethacrylate (example 12) was compared according to application example 5: […]

Series [3] can be described thus: Retainment of antioxidants in hydrogel samples, leaching with weekly exchange of heavy water. The protocol:
The retainment properties of antioxidants were tested by preparing and aging antioxidant-doped samples according to application example 3. The heavy water the hydrogels samples were aged in was exchanged weekly, followed by testing of the heavy water. Detection of decomposition was observed by NMR spectroscopy with the formation of decomposition markers, such as formic acid, in the liquid. This was quantified with the addition of an internal standard.
Retainment of BHT and sodium fenozan was studied according to […].

On to `Cc1cc(C(C)(C)C)c(O)c(C(C)(C)C)c1` [BHT], for which, in series [1], the “Decomposition (decomposition marker such as formic acid) of hydrogel with antioxidant” value was “no decomposition was observed”. In addition, the “Reduction of polymerized mass in presence of antioxidant” value in series [2] was “no reduction of polymerized masses was observed”. Moreover, the “Retainment of antioxidant in hydrogel (decomposition markers and antioxidant in leached solvent)” value in series [3] (leaching experiments over three weeks) was “lack of decomposition markers and antioxidant in the leached solvent”.
As to `CC(C)(C)c1cc(CCC(=O)[O-])cc(C(C)(C)C)c1O.[Na+]` [sodium fenozan], in series [1], the “Decomposition (decomposition marker such as formic acid) of hydrogel with antioxidant” value was “no decomposition was observed”. Further, the “Reduction of polymerized mass in presence of antioxidant” value in series [2] is reported as “no reduction of polymerized masses was observed”. For the same molecule, the “Decomposition markers in leached solvent” value in series [3] (after 3 weeks of leaching) is 1.4 mM.
